Where two headings read alike, the source gives them in different places.
How the values were obtained:
[1] = tested on: excised wheat leaf tips (Triticum aestivum cv. Hereward); test: Senescence inhibition on winter wheat leaf segments (retention of chlorophyll); type: in vivo; conditions: 10^−4 mol/L; 96 hours in the dark; activity of kinetin set at 100%
Experimental: Seeds of winter wheat, Triticum aestivum cv. Hereward, were washed under running water for 24 hours and then sown on vermiculite soaked with Knop's solution. They were placed in the grown chamber at 25° C. with a 16/8 hours light period at […]. After 7 days, the first leaf was fully developed and the second leaf had started to grow. A tip section of the first leaf, approximately 35 mm long, was removed from 5 seedlings and trimmed slightly to a combined weight of 100 mg. The basal ends of the five leaf tips were placed in the wells of a microtiter polystyrene plate containing […] of a cytokinin solution each. The entire plate was inserted into a plastic box lined with paper tissues soaked in distilled water to prevent leaf sections from drying out. After 96 hours incubation in the dark at 25° C., the leaves were removed and chlorophyll extracted by heating at 80 C for 10 min in 5 ml of 80% ethanol (v/v). The sample volume was then restored to 5 ml by the addition of 80% ethanol (v/v). The absorbance of the extract was recorded at 665 nm. In addition, chlorophyll extracts from fresh leaves and leaf tips incubated in deionized water were measured. From the obtained data, the concentration with highest activity was selected for each compound tested. Relative activity of the compound at this concentration was calculated (see Table 6 below). The activity obtained for 10^−4 M kinetin (Kin) was set as 100%. The values shown are means of five replicates and the whole experiment was repeated twice.
The compounds to be tested were dissolved in dimethylsulfoxide (DMSO) and the solution brought up to 10^−3 M with distilled water. […] As summarized in Table 6 below, the presence of C-8 substitutent was beneficial and led to increase of antisenescent properties.

[2] = tested on: cytokinin-dependent tobacco callus Nicotiana tabacum L. cv. Wisconsin 38; test: Plant cell division: growth of cytokinin-dependent tobacco callus; type: cell-based; conditions: for Activity (%); (s.d.): relative activity at concentration with highest activity, 10^−6 M kinetin set at 100%; for Concentration with highest activity (mol/l): tobacco callus fresh weight increase after four weeks, tested 10^−8 M to 10^−4 M
Experimental: Cytokinin-dependent tobacco callus Nicotiana tabacum L. cv. Wisconsin 38 was maintained at 25° C. in darkness on modified MS medium, containing 4 μmol/l nicotinic acid, 2.4 μmol/l pyridoxine hydrochloride, 1.2 μmol/l thiamine, 26.6 μmol/l glycine, 1.37 μmol/l glutamine, 1.8 μmol/l myo-inositol, 30 g/l of sucrose, 8 g/l of agar, 5.37 μmol/l NAA and 0.5 μmol/l BAP. Subcultivation was carried out every three weeks. Fourteen days before the bioassay, the callus tissue was transferred to the media without BAP. Biological activity was determined from the increase in fresh callus weight after four weeks of cultivation. Five replicates were prepared for each cytokinin concentration and the entire test was repeated twice. From the obtained data, the concentration with highest activity was selected for each compound tested. Relative activity at this concentration was calculated (see Table 17 below). The activity obtained for 10^−6 M kinetin (Kin) was set as 100%.
The cytokinins to be tested were dissolved in dimethylsulfoxide (DMSO) and the solution brought up to 10^−3M with distilled water.

[3] = tested on: normal diploid fibroblasts BJ; test: In vitro cytotoxic activity (Calcein AM), BJ; type: cell-based, human; conditions: 72 hours, read-out: Cell line tested/IC50 (μmol/L) BJ
Description: (§1) Because toxic compounds negatively influence metabolic processes of cells, many standard cytotoxicity assays are based on measurement of metabolisation rate of various artificial substrates. Resulting product is then quantified, for example, by means of spectrometry. The assays can be easily modified for use in 96-well plates. For evaluation of cytotoxicity of the […] of this invention, a microtiter assay based on quantification of metabolisation of Calcein AM was used. The assay is widely used in drug screening programs and in chemosensitivity testing. In live cells, Calcein AM is enzymatically hydrolysed and accumulation of resulting calcein is manifested by green fluorescence.
(§2) The following human cell lines were used for routine screening of the compounds: normal diploid fibroblasts BJ, T-lymphoblastic leukemia cell line CEM, promyelocytic leukemia cell line HL-60, erytroid leukemia cell line K-562, breast carcinoma cell line MCF-7, osteosarcoma cell line HOS and melanoma cell line G-361. The cells were maintained in Nunc/Corning 80 cm^2 plastic tissue culture flasks and cultured in cell culture medium (DMEM with 5 g/l glucose, 2 mM glutamine, 100 U/ml penicillin, 100 mmg/ml streptomycin, 10% fetal calf serum and sodium bicarbonate). The cell suspensions were prepared and diluted according to the particular cell type and the expected target cell density (2.500-30.000 cells per well based on cell growth characteristics) and pipetted (80 μl) into 96-well plates. Inoculates were allowed a pre-incubation period of 24 hours at 37° C. and 5% CO2 for stabilization. Tested compound was added in total volume of 20 μl of water at time zero. Usually, test compound was evaluated at six 3-fold dilutions. In routine testing, the highest concentration tested was 100 μM, but it could have been adjusted because of limited solubility of a compound. All drug concentrations were tested in triplicates.
(§3) Incubations of cells with the test compounds lasted for 72 hours at 37° C., in 5% CO2 atmosphere and 100% humidity. At the end of incubation period Calcein AM in PBS was added into final concentration of 1 μg/ml. After another 1 hour of incubation fluorescence (FD) was measured with the Labsystem FIA Reader Fluoroscan Ascent (UK). Growth inhibition (GI) was estimated using the following equitation: GI=(mean FDdrug exposed wells−mean FDblank)/(mean FDcontrol wells−mean FDblank)×100%. The GI50 value, the drug concentration causing 50% reduction of Calcein AM conversion, was calculated from the obtained dose response curves.

[4] = tested on: T-lymphoblastic leukemia cell line CEM; test: In vitro cytotoxic activity (Calcein AM), CEM; type: cell-based, human; conditions: 72 hours, read-out: Cell line tested/IC50 (μmol/L) CEM
Description: as §1, §2, §3

[5] = tested on: erytroid leukemia cell line K-562; test: In vitro cytotoxic activity (Calcein AM), K-562; type: cell-based, human; conditions: read-out: Cell line tested/IC50 (μmol/L) K-562
Description: as §1, §2, §3

[6] = tested on: breast carcinoma cell line MCF-7; test: In vitro cytotoxic activity (Calcein AM), MCF-7; type: cell-based, human; conditions: read-out: Cell line tested/IC50 (μmol/L) MCF7
Description: as §1, §2, §3

[7] = tested on: osteosarcoma cell line HOS; test: In vitro cytotoxic activity (Calcein AM), HOS; type: cell-based, human; conditions: 72 hours, read-out: Cell line tested/IC50 (μmol/L) HOS
Description: as §1, §2, §3

melanoma cell line G-361 = test: In vitro cytotoxic activity (Calcein AM), G-361; type: cell-based, human; conditions: read-out: Cell line tested/IC50 (μmol/L) G-361
Description: as §1, §2, §3

[8] = tested on: Human diploid fibroblast BJ; test: In vitro cytotoxic activity (MTT); type: cell-based; conditions: 72 hours incubation; concentration causing 20% decrease in mitochondrial dehydrogenase activity
Experimental: MTT (metabolic tetrazolium toxicity) assay is a standard colorimetric assay for evaluation of cytotoxicity. Mitochondrial dehydrogenase activity converts yellow MTT into violet formazan which is measured by means of spectrometry.
Human diploid fibroblast BJ (passage 18-22) were seeded into 96-well plate (5.000 cells per well). After 6 hours cultivation medium (DMEM with 5 g/l glucose, 2 mM glutamine, 100 U/ml penicillin, 100 mmg/ml streptomycin, 10% fetal calf serum and sodium bicarbonate) was replaced with the cultivation medium containing test compounds in concentration range of 0-200 µM. Highest concentration was adjusted if the solubility of the compound was limiting. Every concentration was tested in pentaplicate. MTT was added to the cells after 72 hours incubation (final concentration 0.5 mg/ml) and incubation continued for another 3 hours. MTT was solubilised by DMSO and absorbance at 570 nm was measured. Growth inhibition (GI) was estimated using the following equitation: GI=(mean A drug exposed wells−mean Ablank/mean Acontrol wells−mean Ablank)×100%. The GI20 value, the drug concentration causing 20% decrease in mitochondrial dehydrogenase activity, was calculated from the obtained dose response curves.

[9] = tested on: Salmonella typhimurium histidien auxotrophs TA98 and TA100; test: Ames test; type: cell-based; conditions: 2.5 to 5000 μg/plate; presence and absence of Aroclor-induced rat liver S9
Summary of the method: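 Strains TA98 and TA100 exposed to compounds in DMSO at 2.5, 5.0, 15, 50, 500, 1500 and 5000 μg/plate following standard Ames/Maron protocols.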

COc1cccc(CNc2ncnc3c2nc(Cl)n3C2CCCCO2)c1 (centres unmarked) [Compound 8]
Activity (%) (s.d.), retention of chlorophyll [1]: 125 (±6) %
Activity (%); (s.d.) [2]: 119 (±7) %
Concentration with highest activity (mol/l) [2]: 10^−6-10^−4 mol/l
IC50 [3]: > 100 µmol/L
IC50 [4]: > 100 µmol/L
IC50 ([5]; 72 hours): > 100 µmol/L
IC50 ([6]; 72 hours): > 100 µmol/L
IC50 [7]: > 100 µmol/L
IC50 (melanoma cell line G-361; 72 hours): > 100 µmol/L
GI20 [8]: >200 µM

Fc1cccc(CNc2ncnc3c2nc(Cl)n3C2CCCCO2)c1 (centres unmarked) [Compound 7]
Activity (%) (s.d.), retention of chlorophyll [1]: 110 (±2) %
Activity (%); (s.d.) [2]: 114 (±5) %
Concentration with highest activity (mol/l) [2]: 10^−6-10^−4 mol/l
IC50 [3]: > 100 µmol/L
IC50 [4]: > 100 µmol/L
IC50 ([5]; 72 hours): > 50 µmol/L
IC50 ([6]; 72 hours): > 100 µmol/L
IC50 [7]: > 100 µmol/L
IC50 (melanoma cell line G-361; 72 hours): > 100 µmol/L
GI20 [8]: >200 µM

COc1cccc(CNc2ncnc3c2nc(Br)n3C2CCCCO2)c1 (centres unmarked) [Compound 28]
Activity (%) (s.d.), retention of chlorophyll [1]: 126 (±7) %
Activity (%); (s.d.) [2]: 107 (±2) %
Concentration with highest activity (mol/l) [2]: 10^−6-10^−4 mol/l
IC50 [3]: > 50 µmol/L
IC50 [4]: > 50 µmol/L
IC50 ([5]; 72 hours): > 50 µmol/L
IC50 ([6]; 72 hours): > 50 µmol/L
IC50 [7]: > 50 µmol/L
IC50 (melanoma cell line G-361; 72 hours): > 50 µmol/L
GI20 [8]: >100 µM

CSc1nc2c(NC/C=C(\C)CO)ncnc2n1C1CCCCO1 (centres unmarked) [Compound 146]
Activity (%); (s.d.) [2]: 108 (±5) %
Concentration with highest activity (mol/l) [2]: 10^−6-10^−5 mol/l
IC50 [3]: > 50 µmol/L
IC50 [4]: > 50 µmol/L
IC50 ([5]; 72 hours): > 50 µmol/L
IC50 ([6]; 72 hours): > 50 µmol/L
IC50 [7]: > 50 µmol/L
IC50 (melanoma cell line G-361; 72 hours): > 50 µmol/L
GI20 [8]: >100 µM
mutagenic response [9]: no positive mutagenic responses

COc1nc2c(NC/C=C(\C)CO)ncnc2n1C1CCCCO1 (centres unmarked) [Compound 126, (E)-6-(4-Hydroxy-3-methylbut-2-en-1-ylamino)-8-methoxy-9-(tetrahydropyran-2-yl)-9H-purine]
Activity (%); (s.d.) [2]: 116 (±6) %
IC50 ([3]; Homo sapiens, Fibroblast): > 50 µmol/L
IC50 ([4]; Homo sapiens): > 50 µmol/L
IC50 ([5]; Homo sapiens, K562, 72 hours): > 50 µmol/L
IC50 ([6]; Homo sapiens, MCF7, 72 hours): > 50 µmol/L
IC50 ([7]; Homo sapiens): > 50 µmol/L
IC50 (melanoma cell line G-361; Homo sapiens, G-361, 72 hours): > 50 µmol/L
GI20 [8]: >100 µM
mutagenic response [9]: no positive mutagenic responses

COc1nc2c(NCc3ccccc3)ncnc2n1C1CCCCO1 (centres unmarked) [Compound 125]
Activity (%); (s.d.) [2]: 104 (±2) %
Concentration with highest activity (mol/l) [2]: 10^−6-10^−4 mol/l
IC50 [3]: > 50 µmol/L
IC50 [4]: > 50 µmol/L
IC50 ([5]; 72 hours): > 50 µmol/L
IC50 ([6]; 72 hours): > 50 µmol/L
IC50 [7]: > 50 µmol/L
IC50 (melanoma cell line G-361; 72 hours): > 50 µmol/L
GI20 [8]: >100 µM
mutagenic response [9]: no positive mutagenic responses

COc1cccc(CNc2ncnc3c2nc(SC)n3C2CCCCO2)c1 (centres unmarked) [Compound 150]
Activity (%); (s.d.) [2]: 105 (±2) %
Concentration with highest activity (mol/l) [2]: 10^−6-10^−5 mol/l
IC50 [3]: > 50 µmol/L
IC50 [4]: > 50 µmol/L
IC50 ([5]; 72 hours): > 50 µmol/L
IC50 ([6]; 72 hours): > 50 µmol/L
IC50 [7]: > 50 µmol/L
IC50 (melanoma cell line G-361; 72 hours): > 50 µmol/L
GI20 [8]: >100 µM
mutagenic response [9]: no positive mutagenic responses

COc1cccc(CNc2ncnc3c2nc(OC)n3C2CCCCO2)c1 (centres unmarked) [Compound 128]
Activity (%); (s.d.) [2]: 121 (±5) %
Concentration with highest activity (mol/l) [2]: 10^−6-10^−5 mol/l
IC50 [3]: > 50 µmol/L
IC50 [4]: > 50 µmol/L
IC50 ([5]; 72 hours): > 50 µmol/L
IC50 ([6]; 72 hours): > 50 µmol/L
IC50 [7]: > 50 µmol/L
IC50 (melanoma cell line G-361; 72 hours): > 50 µmol/L
GI20 [8]: >100 µM
mutagenic response [9]: no positive mutagenic responses

CSc1nc2c(NCC=C(C)C)ncnc2n1C1CCCCO1 (centres unmarked) [Compound 147]
Activity (%); (s.d.) [2]: 112 (±2) %
Concentration with highest activity (mol/l) [2]: 10^−6-10^−4 mol/l
IC50 [3]: > 50 µmol/L
IC50 [4]: > 50 µmol/L
IC50 ([5]; 72 hours): > 50 µmol/L
IC50 ([6]; 72 hours): > 50 µmol/L
IC50 [7]: > 50 µmol/L
IC50 (melanoma cell line G-361; 72 hours): > 50 µmol/L
GI20 [8]: >100 µM
mutagenic response [9]: no positive mutagenic responses
